Test results taken from patent publication US20260000676A1, “CHROMAN DERIVATIVES AS ESTROGEN RECEPTOR DEGRADERS” (THE REGENTS OF THE UNIVERSITY OF MICHIGAN, priority 2022, published 2026).

How the values were obtained:
CRBN/DDB1 = CRBN/DDB1 (Homo sapiens (Human), UniProt Q96SW2); assay: HTRF binding assay to CRBN/DDB1; details: read-out: CRBN HTRF IC50
Method: The binding potency was determined using HTRF assay technology (Perkin Elmer). Compounds were serially diluted in DMSO and 0.2 μL volume was transferred to white 384-well plate.

ER [1] = molecular target: T1, ER (Homo sapiens (Human), UniProt P03372); assay: In-cell western (ICW) ER degradation assay in MCF-7 cells; type: cell-based; details: MCF7, 16 hrs; for DC50: ER degradation; for Dmax: MCF7, maximal ER degradation; for MCF7 Dmax %: maximal ER degradation
T1 sequence (P03372 whole entry): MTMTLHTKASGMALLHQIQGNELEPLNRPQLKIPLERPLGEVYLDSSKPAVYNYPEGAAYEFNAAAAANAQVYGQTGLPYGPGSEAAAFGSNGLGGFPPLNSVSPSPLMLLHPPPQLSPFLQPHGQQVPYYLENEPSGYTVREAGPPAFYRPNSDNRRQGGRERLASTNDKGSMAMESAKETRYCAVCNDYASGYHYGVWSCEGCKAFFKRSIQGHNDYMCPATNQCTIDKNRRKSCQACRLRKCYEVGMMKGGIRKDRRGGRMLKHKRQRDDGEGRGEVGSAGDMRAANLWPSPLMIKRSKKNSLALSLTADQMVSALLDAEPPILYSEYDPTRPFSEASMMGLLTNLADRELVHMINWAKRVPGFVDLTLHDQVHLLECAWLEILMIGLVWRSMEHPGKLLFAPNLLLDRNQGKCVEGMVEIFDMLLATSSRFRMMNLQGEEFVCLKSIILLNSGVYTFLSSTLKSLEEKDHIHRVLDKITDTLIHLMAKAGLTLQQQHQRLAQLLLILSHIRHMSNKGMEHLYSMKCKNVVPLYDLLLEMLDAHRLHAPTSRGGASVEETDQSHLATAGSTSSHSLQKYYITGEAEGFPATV
Method: (§1) ERa degradative activity of compounds can be assessed in MCF-7 and T47D Cells. MCF-7 and T47D cell are seeded and are subsequently treated with the compounds at certain concentrations (e.g., 0.02 to 300 nM). DMSO can be used as vehicle control. Cells are fixed and are blocked with Intercept (PBS) Blocking Buffer (e.g., Li-COR, Odyssey Blocking Buffer), and are stained with ER (e.g., 1:500, Cell signaling) primary antibody for overnight at cold room. Secondary Antibody (e.g., IRDye 800CW Goat anti-Rabbit IgG) and CellTag 700 Stain are added in Intercept (PBS) Blocking Buffer. Finally, cell plate is placed in incubator to dry. Image and signal are captured on Odyssey® DLx Imaging System.
(§2) Day 3: After 16 hrs of compounds treatment, cells were fixed by 4% PFA and permeabilized with elution buffer (0.1% Triton X-100 in 1% PBS Solution). Subsequently, cells were blocked with Intercept (PBS) Blocking Buffer (Li-COR, Odyssey Blocking Buffer), and were stained with ER (1:500, Cell signaling) primary antibody for overnight at cold room.
(§3) Day 4: Remove the buffer, add IRDye 800CW Goat anti-Rabbit IgG Secondary Antibody (1:2000) and CellTag 700 Stain (1:500) in Intercept (PBS) Blocking Buffer. Finally, cell plate is placed in incubator to dry. Image and signal were captured on Odyssey® DLx Imaging System.

ER [2] = molecular target: T1, ER; assay: In-cell western (ICW) ER degradation assay in T47D cells; type: cell-based; details: 16 hrs; for DC50: ER degradation; for Dmax: maximal ER degradation
Method: as §1, §2, §3

CRBN/DDB1, sequence (Q96SW2 whole entry): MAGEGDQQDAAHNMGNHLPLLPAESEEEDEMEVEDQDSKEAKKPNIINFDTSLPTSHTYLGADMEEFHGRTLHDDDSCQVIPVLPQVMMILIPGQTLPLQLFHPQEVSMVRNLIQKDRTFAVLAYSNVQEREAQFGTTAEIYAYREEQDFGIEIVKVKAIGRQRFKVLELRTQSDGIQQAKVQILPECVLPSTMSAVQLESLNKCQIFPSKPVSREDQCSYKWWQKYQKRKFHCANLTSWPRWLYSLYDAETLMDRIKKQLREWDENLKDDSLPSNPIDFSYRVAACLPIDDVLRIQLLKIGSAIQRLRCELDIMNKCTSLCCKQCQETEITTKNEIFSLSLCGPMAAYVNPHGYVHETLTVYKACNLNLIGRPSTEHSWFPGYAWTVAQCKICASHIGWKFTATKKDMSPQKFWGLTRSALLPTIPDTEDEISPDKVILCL
CRBN/DDB1, sequence (Q16531 whole entry partner): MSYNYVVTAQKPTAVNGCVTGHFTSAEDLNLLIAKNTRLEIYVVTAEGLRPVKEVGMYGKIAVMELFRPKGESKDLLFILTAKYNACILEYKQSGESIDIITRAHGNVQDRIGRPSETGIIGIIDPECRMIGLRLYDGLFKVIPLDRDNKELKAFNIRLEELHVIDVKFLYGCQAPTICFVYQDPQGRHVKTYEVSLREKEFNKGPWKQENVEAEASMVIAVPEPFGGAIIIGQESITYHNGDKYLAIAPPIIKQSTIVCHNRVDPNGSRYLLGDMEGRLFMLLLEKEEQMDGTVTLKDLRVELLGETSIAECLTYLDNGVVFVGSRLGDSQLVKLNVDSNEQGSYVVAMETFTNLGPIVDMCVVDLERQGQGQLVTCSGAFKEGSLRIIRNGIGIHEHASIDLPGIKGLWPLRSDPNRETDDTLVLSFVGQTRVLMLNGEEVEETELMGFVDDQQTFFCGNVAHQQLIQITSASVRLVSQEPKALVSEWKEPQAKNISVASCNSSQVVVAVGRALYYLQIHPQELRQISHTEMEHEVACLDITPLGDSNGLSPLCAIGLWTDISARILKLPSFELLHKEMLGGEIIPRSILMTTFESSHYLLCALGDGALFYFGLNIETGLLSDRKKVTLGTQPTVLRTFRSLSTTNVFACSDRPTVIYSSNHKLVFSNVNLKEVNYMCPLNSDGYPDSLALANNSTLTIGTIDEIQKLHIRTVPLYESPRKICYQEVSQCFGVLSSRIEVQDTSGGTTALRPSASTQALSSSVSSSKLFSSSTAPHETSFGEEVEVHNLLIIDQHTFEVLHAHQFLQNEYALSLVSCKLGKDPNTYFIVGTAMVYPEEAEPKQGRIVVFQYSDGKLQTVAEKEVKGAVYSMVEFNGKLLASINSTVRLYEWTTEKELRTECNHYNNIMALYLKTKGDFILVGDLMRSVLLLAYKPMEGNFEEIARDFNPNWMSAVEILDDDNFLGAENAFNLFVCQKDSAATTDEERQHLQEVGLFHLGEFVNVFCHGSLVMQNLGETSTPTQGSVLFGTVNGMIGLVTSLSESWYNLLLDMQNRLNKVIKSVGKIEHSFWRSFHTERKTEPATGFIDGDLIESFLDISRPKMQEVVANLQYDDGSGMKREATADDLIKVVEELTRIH

| Compound | IC50 (CRBN/DDB1) [nM] | DC50 (ER [1]) [nM] | Dmax (ER [1]) [%] | DC50 (ER [2]) [nM] | Dmax (ER [2]) [%] | MCF7 Dmax % (ER [1]) |
| --- | --- | --- | --- | --- | --- | --- |
| O=C1CC[C@@H](Nc2ccc(C3CCN(CC4CCC5(CC4)CN(c4ccc([C@@H]6c7ccc(O)cc7OC[C@@H]6c6ccccc6)cc4)C5)CC3)cc2)C(=O)N1 (single isomer, unassigned) [Compound A141] | 50 to 500 | 1 to 10 | 50 to 75 | 1 to 10 | 50 to 75 |  |
| O=C1CCC(N2C(=O)c3cc4c(cc3C2=O)CN(C(=O)C2CCN(C3CCN(c5ccc([C@H]6c7ccc(O)cc7OC[C@H]6c6ccccc6)cc5)CC3)CC2)C4)C(=O)N1 (single isomer, unassigned) [Compound A78] | 500 to 5000 |  |  | 10 to 100 | 25 to 50 |  |
| O=C1CCN(c2ccc(N3CCN(CC4CCN(c5ccc([C@@H]6c7ccc(O)cc7OC[C@@H]6c6ccccc6)cc5)CC4)CC3)cc2)C(=O)N1 (single isomer, unassigned) [Compound A82] | 500 to 5000 |  |  | 1 to 10 | 25 to 50 |  |
| O=C1CCC(Nc2ccc3c(c2)OC[C@H]2CN(CC4CC5(CCN(c6ccc([C@@H]7c8ccc(O)cc8OC[C@@H]7c7ccccc7)cc6)CC5)C4)CCN32)C(=O)N1 (stereo partly drawn) [Compound A94, 3-(((R)-3-((7-(4-((3S,4R)-7-hydroxy-3-phenylchroman-4-yl)phenyl)-7-azaspiro[3.5]nonan-2-yl)methyl)-1,2,3,4,4a,5-hexahydrobenzo[b]pyrazino[1,2-d][1,4]oxazin-8-yl)amino)piperidine-2,6-dione] | 500 to 5000 |  |  | 1 to 10 | 50 to 75 |  |
| O=C1CCC(N2Cc3cc4c(cc3C2=O)CN(C(=O)CN2CCC3(CC2)CCN(c2ccc([C@@H]5c6ccc(O)cc6OC[C@@H]5c5ccccc5)cc2)CC3)C4)C(=O)N1 (single isomer, unassigned) [Compound A42] | 50 to 500 | > 100 | < 25 |  |  |  |
| O=C1CCC(N2Cc3cc4c(cc3C2=O)CN(C(=O)C2CCN(C3CCN(c5ccc([C@H]6c7ccc(O)cc7OC[C@H]6c6ccccc6)cc5)CC3)CC2)C4)C(=O)N1 (single isomer, unassigned) [Compound A80] | 500 to 5000 |  |  | 10 to 100 | 50 to 75 |  |
| O=C1CCC(NC(=O)c2ccc(C3CCN(CC4CCN(c5ccc([C@H]6c7ccc(O)cc7OC[C@H]6c6ccccc6)cc5F)CC4)CC3)cn2)C(=O)N1 (single isomer, unassigned) [Compound A101] | > 5000 |  |  | < 1 | < 25 |  |
| 2-(2,6-dioxopiperidin-3-yl)-6-(2-(9-(4-((3R,4S)-7-hydroxy-3-phenylchroman-4-yl)phenyl)-3,9-diazaspiro[5.5]undecan-3-yl)acetyl)-6,7-dihydropyrrolo[3,4-flisoindole-1,3(2H,5H)-dione [Compound A43] | > 5000 | > 100 |  |  |  | D (“D”; <25%) |
| O=C1CCC(N2Cc3c(ccc4c3OC[C@H]3CN(CC5CCN(c6ccc([C@@H]7c8ccc(O)cc8OC[C@@H]7c7ccccc7)cc6)CC5)CCN43)C2=O)C(=O)N1 (single isomer, unassigned) [Compound A8] | 50 to 500 | 1 to 10 |  |  |  |  |
| O=C1CCC(N2C(=O)c3cc4c(cc3C2=O)CN(CC(=O)N2CC3(CCN(c5ccc([C@H]6c7ccc(O)cc7OC[C@H]6c6ccccc6)cc5)CC3)C2)C4)C(=O)N1 (single isomer, unassigned) [Compound A39] | 50 to 500 | > 100 | < 25 |  |  |  |
| O=C1CCC(N2Cc3cc4c(cc3C2=O)CN(C(=O)CN2CC3(CCN(c5ccc([C@H]6c7ccc(O)cc7OC[C@H]6c6ccccc6)cc5)CC3)C2)C4)C(=O)N1 (single isomer, unassigned) [Compound A45] | 50 to 500 | > 100 |  |  |  | D (“D”; <25%) |
| O=C1CCC(N2Cc3c(ccc4c3OC[C@@H]3CN(CC5CCN(c6ccc([C@@H]7c8ccc(O)cc8OC[C@@H]7c7ccccc7)cc6F)CC5)CCN43)C2=O)C(=O)N1 (single isomer, unassigned) [Compound A6] | 50 to 500 | 1 to 10 | 50 to 75 |  |  |  |
| O=C1CCC(N2Cc3c(ccc4c3OC[C@H]3CN(CC5CCN(c6ccc([C@@H]7c8ccc(O)cc8OC[C@@H]7c7ccccc7)cc6F)CC5)CCN43)C2=O)C(=O)N1 (single isomer, unassigned) [Compound A9] | 50 to 500 | 1 to 10 |  |  |  |  |
| O=C1CC[C@H](N2Cc3c(ccc4c3OC[C@H]3CN(CC5CC6(CCN(c7ccc([C@@H]8c9ccc(O)cc9OC[C@@H]8c8ccccc8)cc7)CC6)C5)CCN43)C2=O)C(=O)N1 (single isomer, unassigned) [Compound A37] | < 50 | 1 to 10 |  |  |  | C (“C”: 25%-50%) |
| O=C1CCC(N2Cc3cc4c(cc3C2=O)OC[C@@H]2CN(CC3CC5(CCN(c6ccc([C@H]7c8ccc(O)cc8OC[C@H]7c7ccccc7)cc6)CC5)C3)CCN42)C(=O)N1 (single isomer, unassigned) [Compound A27, 3-((S)-3-((7-(4-((3R,4S)-7-hydroxy-3-phenylchroman-4-yl)phenyl)-7-azaspiro[3.5]nonan-2-yl)methyl)-8-oxo-1,2,3,4,4a,5,8,10-octahydro-9H-pyrazino[1′,2′:4,5][1,4]oxazino[2,3-f]isoindol-9-yl)piperidine-2,6-dione] | 500 to 5000 | 1 to 10 |  |  |  |  |
| O=C1CCN(c2ccc(N3CCC(CN4CC5(CCN(c6ccc([C@@H]7c8ccc(O)cc8OC[C@@H]7c7ccccc7)cc6)CC5)C4)CC3)cc2)C(=O)N1 (single isomer, unassigned) [Compound A87] | > 5000 |  |  | 1 to 10 | 25 to 50 |  |
| O=C1CCN(c2ccc(N3CCN(CC4CC5(CCN(c6ccc([C@@H]7c8ccc(O)cc8OC[C@@H]7c7ccccc7)cc6)CC5)C4)CC3)cc2)C(=O)N1 (single isomer, unassigned) [Compound A83] | > 5000 |  |  | > 100 | < 25 |  |
| O=C1CCC(N2C(=O)c3cc4c(cc3C2=O)CN(C(=O)CN2CCC3(CC2)CN(c2ccc([C@@H]5c6ccc(O)cc6OC[C@@H]5c5ccccc5)cc2)C3)C4)C(=O)N1 (stereo partly drawn) [Compound A47, 2-(2,6-dioxopiperidin-3-yl)-6-(2-(2-(4-((3S,4R)-7-hydroxy-3-phenylchroman-4-yl)phenyl)-2,7-diazaspiro[3.5]nonan-7-yl)acetyl)-6,7-dihydropyrrolo[3,4-f]isoindole-1,3(2H,5H)-dione] | 500 to 5000 | 10 to 100 | 25 to 50 |  |  |  |
| COc1cc(N2CCC(CN3CCN4c5ccc6c(c5OC[C@H]4C3)CN(C3CCC(=O)NC3=O)C6=O)CC2)ccc1[C@H]1c2ccc(O)cc2OC[C@H]1c1ccccc1 (stereo partly drawn) [Compound A76, 3-((R)-7-((1-(4-((3R,4S)-7-hydroxy-3-phenylchroman-4-yl)-3-methoxyphenyl)piperidin-4-yl)methyl)-1-oxo-1,3,5,5a,6,7,8,9-octahydro-2H-81pyrazino[1′,2′:4,5][1,4]oxazino[2,3-e]isoindol-2-yl)piperidine-2,6-dione] | 50 to 500 |  |  | > 100 | < 25 |  |
| Cc1nn(C2CCC(=O)NC2=O)c2ccc(N3CCN(CC4CC5(CCN(c6ccc([C@H]7c8ccc(O)cc8OC[C@H]7c7ccccc7)cc6)CC5)C4)CC3)cc12 (single isomer, unassigned) [Compound A17] | 50 to 500 | < 1 | 50 to 75 |  |  |  |
| COc1nc(C(=O)NC2CCC(=O)NC2=O)ccc1N1CCN(CC2CCN(c3ccc([C@H]4c5ccc(O)cc5OC[C@H]4c4ccccc4)cc3F)CC2)CC1 (single isomer, unassigned) [Compound A102] | 500 to 5000 | < 1 | 50 to 75 |  |  |  |
| O=C1CCC(N2C(=O)c3cc4c(cc3C2=O)CN(CC(=O)N2CCC3(CC2)CN(c2ccc([C@H]5c6ccc(O)cc6OC[C@H]5c5ccccc5)cc2)C3)C4)C(=O)N1 (single isomer, unassigned) [Compound A38] | 50 to 500 | 10 to 100 | 25 to 50 |  |  |  |
| O=C1CCC(N2Cc3c(ccc4c3OC[C@@H]3CN(CC5CCN(c6ccc([C@@H]7c8ccc(O)cc8OC[C@@H]7c7ccccc7)cc6)CC5)CCN43)C2=O)C(=O)N1 (single isomer, unassigned) [Compound A7] | 50 to 500 | 1 to 10 | 50 to 75 |  |  |  |
| COc1nc(C(=O)NC2CCC(=O)NC2=O)ccc1N1CCN(CC2CC3(CCN(c4ccc([C@H]5c6ccc(O)cc6OC[C@H]5c5ccccc5)cc4)CC3)C2)CC1 (single isomer, unassigned) [Compound A97] | 500 to 5000 |  |  | < 1 | 25 to 50 |  |
